System: neuromuscular junction
Experiment: inhibition of the ex-vivo neuromuscular junction preparation (FIG. 1)
Set-up: species or system mouse
Details: single molecule alone
Description: The Applicants arrived at the results of the present invention in the course of their studies on the mechanism of action of snake presynaptic PLA2 neurotoxins. These presynaptic neurotoxins are major components of the venom of many poisonous snakes. Starting from: a) the established fact that these neurotoxins are endowed with a phospholipase A2 (PLA2) activity and that such activity leads to the production of LysoPLs and FAs following the hydrolysis of the fatty acid ester bond in position 2 of phospholipids (4); b) the fact that lysophospholipids and fatty acids in the appropriate membrane localization favor membrane fusion and inhibit membrane fission (5), and that c) such biological activities would lead to the depletion of synaptic vesicles from nerve terminals, as the one observed by electron microscopy upon exposure to the snake presynaptic PLA2 neurotoxins (6,7), the Applicants decided to test the effect of a mixture of lysophospholipids and fatty acids on the neuromuscular junction both in an ex-vivo preparation and in an in-vivo system.
Similar data were obtained with other lysoPLs varying with respect to R and/or with respect to R′. […] In other words, the two molecules act in a synergistic mode and this is at the very basis of the present patent. […]

In the case of `CCCCCCCC/C=C\CCCCCCCC(=O)O` [OA, oleic acid], the “inhibition of the neuromuscular junction” value is reported as “unable to elicit a substantial inhibition”.
`CCCCCCCCCCCCCC(=O)OC[C@@H](O)COP(=O)([O-])OCC[N+](C)(C)C` [lysoPC, 1-Myristoyl-sn-glycero-3-phosphocholine] was tested, and the “inhibition of the neuromuscular junction” value was “unable to elicit a substantial inhibition”.

— patent US20070036737A1, “PRODUCTS FOR TOPICAL A[…] LYSOPHO[…] FATTY ACIDS” (priority 2005, published 2007)
